According to patent US20100190846A1, “MICROBICIDAL AGENT AND MICROBICIDAL COMPOSITION” (priority 2006, published 2010):
Entries after “also recorded” stand apart in the source; their conditions may differ.

Experiments:
Candida sp. = assay: Paper disk method microbicidal test; assay type: cell-based; settings: 0 mg/mL control: 11.86 (flavone, 40% DMSO), — (catechin)
Protocol: (§1) As microbicidal test method for 5,7,4′-trihydroxy-3′,5′-dimethoxyflavone, the paper disk method was employed, by which method the microbicidal activity can be judged even in cases where a solvent has some influences.
(§2) In paper disk method, sample solutions having various sample concentration are prepared, and the sample solution was absorbed in a special paper disk, followed by drying the paper disk. Onto the plate which is made by mixing a prepared bacterial suspension with agar medium, the paper disks are placed. If the sample has a microbicidal activity, the inhibition ring which indicates the inhibition of bacterial growth is formed such that the center of the ring is coincident with the paper disk. The degree of a microbicidal activity is judged based on the size of the inhibition ring.
(§3) First, 4 mg of 5,7,4′-trihydroxy-3′,5′-dimethoxyflavone sample was dissolved in 200 μL to prepare 20 mg/mL sample solution. To 100 μL of this 20 mg/mL sample solution, 100 μL of sterilized water was added to prepare 200 μL of 10 mg/mL sample solution. To the solution, 60 μL DMSO and 140 μL of sterilized water were added to prepare 400 μL of 5.0 mg/mL sample solution. DMSO was used in the concentration of 40%, because the sample precipitated from 30% DMSO. To 350 μL of 5.0 mg/mL sample solution, 140 μL DMSO and 210 μL of sterilized water were added to prepare 700 μL of 2.5 mg/mL sample solution. In the same manner, 1.25 mg/mL and 0.625 mg/mL sample solutions were prepared. As a control, a solution containing 40% DMSO and 60% sterilized water was prepared. […] In a paper disk (8.12 mm diameter), 70 μL of these solutions each was absorbed, and the paper disks were dried for a day.
(§4) As test bacteria, Staphylococcus aureus, Salmonella sp., Yersinia enterocolitica, Pseudomonas aeruginosa, and Candida sp. were used. These bacteria were mixed with 2 mL of sterilized water to prepare bacterial suspensions having turbidity 1 (10^8/mL). The plate agar was made by mixing 0.2 mL of the bacterial suspension with 19.8 mL of BHI medium. The dried paper disk was placed onto the plate agar, and the plate was incubated in an incubator at 37° C., followed by assessing the activity. In the Table, (-) represents that no microbicidal activity was observed.

Pseudomonas aeruginosa = assay: Paper disk method microbicidal test; assay type: cell-based; settings: for size of the inhibition ring: 0 mg/mL control: 12.33 (flavone, 40% DMSO), — (catechin)
Protocol: as §1, §2, §3, §4

Salmonella sp. = assay: Paper disk method microbicidal test; assay type: cell-based; settings: for size of the inhibition ring: 0 mg/mL control: 12.35 (flavone, 40% DMSO), — (catechin)
Protocol: as §1, §2, §3, §4

Yersinia enterocolitica = assay: Paper disk method microbicidal test; assay type: cell-based; settings: 0 mg/mL control: 15.65 (flavone, 40% DMSO), — (catechin)
Protocol: as §1, §2, §3, §4

[1] = Solubility in DMSO observed during sample preparation; assay type: physicochemical; settings: 30% DMSO; 40% DMSO used instead
Protocol: First, 400 mg of sample was dissolved in 1 mL of DMSO to prepare 400 mg/mL sample solution. Then 0.5 mL of this 400 mg/mL sample solution was diluted 2-fold to prepare 200 mg/mL sample solution. In the same manner, sample solutions of 100 mg/mL, 50.0 mg/mL, and 25.0 mg/mL were prepared. In addition, 300 mg/mL sample solution was prepared. Thereafter, 0.2 mL of these sample solutions each was mixed with 19.8 mL of BHI (Brain Heart Infusion Agar, Becton Dickinson, MD) medium, thereby preparing agar plates having the sample concentration of 4.0 mg/mL, 3.0 mg/mL, 2.0 mg/mL, 1.0 mg/mL, 0.5 mg/mL, and 0.25 mg/mL in dishes. […] Sterilized water was used for dissolving catechin, because catechin was insoluble in DMSO.
First, 4 mg of 5,7,4′-trihydroxy-3′,5′-dimethoxyflavone sample was dissolved in 200 μL to prepare 20 mg/mL sample solution. To 100 μL of this 20 mg/mL sample solution, 100 μL of sterilized water was added to prepare 200 μL of 10 mg/mL sample solution. To the solution, 60 μL DMSO and 140 μL of sterilized water were added to prepare 400 μL of 5.0 mg/mL sample solution. DMSO was used in the concentration of 40%, because the sample precipitated from 30% DMSO. To 350 μL of 5.0 mg/mL sample solution, 140 μL DMSO and 210 μL of sterilized water were added to prepare 700 μL of 2.5 mg/mL sample solution. In the same manner, 1.25 mg/mL and 0.625 mg/mL sample solutions were prepared. […]

[2] = 0.625 mg/mL solution on 8.12 mm paper disk
[3] = 1.25 mg/mL solution on 8.12 mm paper disk
[4] = 2.5 mg/mL solution on 8.12 mm paper disk

Compound: COc1cc(-c2cc(=O)c3c(O)cc(O)cc3o2)cc(OC)c1O [5,7,4′-Trihydroxy-3′,5′-Dimethoxyflavone, 5,7,4′-trihydroxy-3′,5′-dimethoxyflavone]
- size of the inhibition ring (Candida sp.; [2]): 11.86
- size of the inhibition ring (Candida sp.; [3]): 12.30
- size of the inhibition ring (Candida sp.; [4]): 11.90
- size of the inhibition ring (Pseudomonas aeruginosa; [2]): 15.46
- size of the inhibition ring (Pseudomonas aeruginosa; [3]): 18.54
- size of the inhibition ring (Pseudomonas aeruginosa; [4]): 19.20
- microbicidal activity (in words) (Pseudomonas aeruginosa; paper disk method): had a microbicidal activity; also recorded: very strong even compared to catechin
- size of the inhibition ring (Salmonella sp.; [2]): 12.35
- size of the inhibition ring (Salmonella sp.; [3]): 13.82
- size of the inhibition ring (Salmonella sp.; [4]): 16.65
- microbicidal activity (in words) (Salmonella sp.; paper disk method): had a microbicidal activity; also recorded: very strong even compared to catechin
- size of the inhibition ring (Yersinia enterocolitica; [2]): 15.67
- size of the inhibition ring (Yersinia enterocolitica; [3]): 15.76
- size of the inhibition ring (Yersinia enterocolitica; [4]): 15.76
- solubility in aqueous DMSO [1]: precipitated
